Test results taken from PMC7764284, “Determination of the Synthetic Cannabinoids JWH-122, JWH-210, UR-144 in Oral Fluid of Consumers by GC-MS and Quantification of Parent Compounds and Metabolites by UHPLC-MS/MS” (International Journal of Molecular Sciences, 2020).

Key:
[1] = parameters: method as in PMID 21871150; details: oral fluid; after smoking two types of herbal products; cited from earlier work
[2] = Oral fluid concentration-time course of SCs and metabolites in consumers after smoking self-administration (GC-MS and UHPLC-HRMS); details: for second peak concentration in OF: after the decrease at 3 h
[3] = consumer smoked JWH-210 3 mg, UHPLC-HRMS
[4] = female, human, po, 3 mg, peak concentration (Cmax) in OF, consumer smoked JWH-210 3 mg, by UHPLC-HRMS, at 20 min
[5] = female, human, po, 3 mg, second peak concentration (Cmax) in OF, consumer smoked JWH-210 3 mg, UHPLC-HRMS, after 2 h

In the case of `CCCCCn1cc(C(=O)c2cccc3ccccc23)c2ccccc21` [JWH-018], the “time of peak OF concentration” value [1] is listed as 20 min.
In the case of `Cc1ccc(C(=O)c2cn(CCCC(C)O)c3ccccc23)c2ccccc12` (centres unmarked) [JWH-122 N-(4-OH), (1-(4-hydroxypentyl)-1H-indol-3-yl)(4-methylnaphthalen-1-yl)methanone], the “concentration range in OF” value ([2]; consumer smoked JWH-122 1 mg, UHPLC-HRMS, between 10 min and 3 h after smoking) is reported as 0.29 to 0.36 ng/mL and the concentration at 20 min ([2]; female, human, po, 1 mg) is reported as 0.29 ng/mL.
For `Cc1ccc(C(=O)c2cn(CCCCCO)c3ccccc23)c2ccccc12` [JWH-122 N-(5-OH), (1-(5-hydroxypentyl)-1H-indol-3-yl)(4-methylnaphthalen-1-yl)-methanone], the “detection of metabolite in OF” value ([2]; consumer smoked JWH-122 1 mg, UHPLC-HRMS) was “only detected in traces under the LOQ”.
With `CCCCCn1cc(C(=O)c2ccc(C)c3ccccc23)c2ccccc21` [JWH-122, (4-methyl-1-naphthalenyl)(1-pentyl-1H-indol-3-yl)-methanone] the “second peak concentration in OF” value ([2]; consumer smoked JWH-122 1 mg, by GC-MS) was 2.00 ng/mL, the “second peak concentration in OF” value ([2]; consumer smoked JWH-122 1 mg, by UHPLC-HRMS) was 1.60 ng/mL and the Tmax ([2]; female, human, po, 1 mg) was 20 min. The Cmax ([2]; female, human, po, 1 mg, peak concentration (Cmax) in OF, consumer smoked JWH-122 1 mg, by GC-MS, at 20 min) was 4 ng/mL and the Cmax ([2]; female, human, po, 1 mg, peak concentration (Cmax) in OF, consumer smoked JWH-122 1 mg, by UHPLC-HRMS, at 20 min) was 3.14 ng/mL.
With `CCc1ccc(C(=O)c2cn(CCCC(C)O)c3ccccc23)c2ccccc12` (centres unmarked) [JWH-210 N-(4-OH), (4-ethylnaphthalen-1-yl)(1-(4-hydroxypentyl)-1H-indol-3-yl)methanone] the “time of second peak concentration” value [2, 3] was 2 h, the Tmax ([2]; female, human, po, 3 mg) was 20 min and the Cmax [2, 4] was 0.29 ng/mL. The Cmax [2, 5] was 0.98 ng/mL.
With `CCc1ccc(C(=O)c2cn(CCCCCO)c3ccccc23)c2ccccc12` [JWH-210 N-(5-OH), (4-ethylnaphthalen-1-yl)(1-(5-hydroxypentyl)-1H-indol-3-yl)methanone] the “time of second peak concentration” value [2, 3] was 2 h, the Tmax ([2]; female, human, po, 3 mg) was 20 min and the Cmax [2, 4] was 0.66 ng/mL. For the same molecule, the Cmax [2, 5] was 0.61 ng/mL.
For `CCCCCn1cc(C(=O)c2ccc(CC)c3ccccc23)c2ccccc21` [JWH-210, (4-ethyl-1-naphthalenyl)(1-pentyl-1H-indol-3-yl)-methanone], the “time after which undetectable in OF” value ([2]; consumer smoked JWH-210 3 mg) was 3 h, the Tmax ([2]; female, human, po, 3 mg) was 20 min and the Cmax ([2]; female, human, po, 3 mg, peak concentration (Cmax) in OF, consumer smoked JWH-210 3 mg, by GC-MS, at 20 min) was 8.1 ng/mL. It also gave a Cmax [2, 4] of 7.3 ng/mL.
For `CC1(C)C(C(=O)c2cn(CCCCCO)c3ccccc23)C1(C)C` [UR-144 N-(5-OH), [1-(5-hydroxypentyl)-1H-indol-3-yl](2,2,3,3-tetramethylcyclopropyl)-methanone], the “detection of metabolite in OF” value ([2]; consumer smoked UR-144 1 mg, UHPLC-HRMS, all the time-course) was “only detected in traces”.
With `CCCCCn1cc(C(=O)C2C(C)(C)C2(C)C)c2ccccc21` [UR-144, (1-pentyl-1H-indol-3-yl)(2,2,3,3-tetramethylcyclopropyl)-methanone] the “time peak from smoking start” value ([2]; consumer smoked UR-144 1 mg) was 20 min, the “time to decrease to undetectable values in OF” value ([2]; consumer smoked UR-144 1 mg) was at most 4 h and the Cmax ([2]; male, human, po, 1 mg, Cmax in OF, consumer smoked UR-144 1 mg, by GC-MS, at 20 min) was 7.4 ng/mL. It also gave a Cmax ([2]; male, human, po, 1 mg, Cmax in OF, consumer smoked UR-144 1 mg, by UHPLC-HRMS, at 20 min) of 6.81 ng/mL.
